Assay [1] addresses T1, Glycogen synthase kinase-3 beta (Homo sapiens, UniProt P49841). The experiment in a line: Inhibition of His-tagged full length human recombinant GSK-3beta expressed in Baculovirus at 0.5 uM using Ser/Thr9 peptide as substrate by Z' LYTE assay relative to control.
Target sequence in this assay (P49841 whole entry, looked up): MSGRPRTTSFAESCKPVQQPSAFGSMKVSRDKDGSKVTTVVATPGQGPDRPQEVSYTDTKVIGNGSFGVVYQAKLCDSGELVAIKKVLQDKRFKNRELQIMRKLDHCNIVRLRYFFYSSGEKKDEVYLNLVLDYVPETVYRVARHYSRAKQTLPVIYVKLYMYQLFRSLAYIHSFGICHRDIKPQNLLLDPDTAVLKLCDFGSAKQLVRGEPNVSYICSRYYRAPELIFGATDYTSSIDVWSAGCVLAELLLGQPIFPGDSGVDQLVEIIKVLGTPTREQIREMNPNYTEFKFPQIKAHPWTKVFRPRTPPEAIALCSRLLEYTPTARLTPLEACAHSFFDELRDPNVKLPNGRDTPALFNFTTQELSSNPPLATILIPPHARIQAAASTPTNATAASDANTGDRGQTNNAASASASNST
The target in assay [2] is T1, Glycogen synthase kinase-3 beta. The experiment in a line: Inhibition of His-tagged full length human recombinant GSK-3beta expressed in Baculovirus using Ser/Thr9 peptide as substrate by Z' LYTE assay.
Target sequence in this assay (P49841 whole entry): as the sequence (P49841 whole entry, looked up) above
Assay [3] concerns the target Cyclin-dependent kinase 2 (Homo sapiens) (UniProt P24941). The experiment in a line: Inhibition of GST-tagged human recombinant CDK2 assessed as residual activity at 2 uM using Ser/Thr12 peptide as substrate by Z' LYTE assay relative to control.

`COc1cc(/C=C2\SC(=N)NC2=O)ccc1O`: the inhibition (as a rule, how much of the control response was suppressed) in assay [1] is more than 50%.

Regarding `N=C1NC(=O)/C(=C/c2ccc(O)c(C(=O)O)c2)S1`, the inhibition in assay [1] is more than 50%. Further, the half-inhibitory concentration (IC50) (usually the concentration needed to halve the response being measured) in assay [2] was determined as 84.8 nM.

`O=C1N/C(=N/c2ccccc2)S/C1=C\c1ccc(F)cc1`: the inhibition in assay [1] was more than 50%. The half-inhibitory concentration (IC50) in assay [2] came out at 40 nM. Besides, in assay [3], the Activity is 68.9%.

For the molecule `COc1ccc(/C=C2\S/C(=N\Cc3ccccc3)NC2=O)cc1[N+](=O)[O-]`, the inhibition in assay [1] is more than 50%. Further, in assay [2], the IC50 was 2.1 nM. Also, in assay [3], the Activity was 73%.

As for `O=C1N=C(NCc2ccccc2)S/C1=C\c1ccc(O)cc1`, the inhibition in assay [1] was more than 50%. In addition, in assay [2], the half-maximal inhibitory concentration (IC50) came to 27.1 nM. In assay [3], the Activity came to 63.2%.

As to `O=C1N/C(=N/c2ccccc2)S/C1=C\c1ccc(O)cc1`, the inhibition in assay [1] is more than 50%. The IC50 in assay [2] turned out to be 27.7 nM. In addition, in assay [3], the Activity was found to be 69.6%.

As for `O=C1N/C(=N/Cc2ccccc2)S/C1=C\c1ccc(Cl)c([N+](=O)[O-])c1`, in assay [1], the inhibition is more than 50%. Moreover, the IC50 in assay [2] stood at 24 nM. The Activity in assay [3] was found to be 68.4%.

In the case of `COc1ccc(/C=C2\S/C(=N\Cc3ccccc3)NC2=O)cc1OC`, the inhibition in assay [1] was more than 50%. Besides, the IC50 in assay [2] came to 44.3 nM. Besides, in assay [3], the Activity worked out at 53.8%.

As to `COc1ccc(/C=C2\SC(=N)NC2=O)cc1OC`, the inhibition in assay [1] is more than 50%. Further, the half-maximal inhibitory concentration (IC50) in assay [2] stood at 80.5 nM.

In the case of `CCOc1cc(/C=C2\S/C(=N\Cc3ccccc3)NC2=O)ccc1O`, the inhibition in assay [1] was more than 50%. Further, the IC50 in assay [2] is 51.7 nM. The Activity in assay [3] came out at 39.1%.

The record behind these values is ChEMBL document CHEMBL3856225, “Design, synthesis and biological evaluation of 5-benzylidene-2-iminothiazolidin-4-ones as selective GSK-3β inhibitors” (Eur J Med Chem, 2016).
